Values after ≈ are worked out from the molar mass of the structure shown. Active and inactive are the calls of the source. The rule behind the calls is not given here.
Experiments:
Staphylococcus aureus [1] = experiment: Minimum inhibitory concentration against Staphylococcus aureus (ATCC 25923); type: functional
Escherichia coli [2] = experiment: Minimum inhibitory concentration against Escherichia coli (ATCC 25922); type: functional
Staphylococcus aureus [3] = experiment: Minimum inhibitory concentration against Staphylococcus aureus (ATCC 25923); inactive; type: functional, organism-based
Escherichia coli [4] = experiment: Minimum inhibitory concentration against Escherichia coli (ATCC 25922); inactive; type: functional, organism-based
[5] = Staphylococcus aureus, ATCC 25923, read-out: MIC
[6] = Escherichia coli, ATCC 25922, read-out: MIC

SMILES	MIC (Staphylococcus aureus [1]; [5]) [µg/mL]	MIC (Escherichia coli [2]; [6]) [µg/mL]	MIC (Staphylococcus aureus [3])	MIC (Escherichia coli [4])	MIC (Staphylococcus aureus [1]) [µg/mL]	MIC (Escherichia coli [2]) [µg/mL]
CC1OC(OC2C(N)CC(N)C(OC3OC(CN)C(O)C(O)C3N)C2O)C(O)C(O)C1OCCCN (centres undefined)	4 (≈ 7.61 µM)	4 (≈ 7.61 µM)				
NC[C@@H]1O[C@H](O[C@H]2[C@H](O)[C@H](O[C@H]3O[C@H](CO)[C@H](O)[C@@H](O)[C@H]3O)[C@H](N)C[C@H]2N)[C@@H](N)[C@@H](O)[C@@H]1O	32 (≈ 66 µM)	32 (≈ 66 µM)				
CC1OC(OC2C(N)CC(N)C(OC3OC(CN)C(O)C(O)C3N)C2O)C(O)C(O)C1OC[C@H](N)CN (some centres undefined)	8 (≈ 14.8 µM)	8 (≈ 14.8 µM)				
CC1OC(OC2C(N)CC(N)C(OC3OC(CN)C(O)C(O)C3N)C2O)C(O)C(O)C1O (stereo in doubt) [listing 1 of 2 here]	16 (≈ 34.2 µM)	32 (≈ 68.3 µM)				
CC1OC(OC2C(N)CC(N)C(OC3OC(CN)C(O)C(O)C3N)C2O)C(O)C(O)C1OC[C@@H](N)CN (some centres undefined)	8 (≈ 14.8 µM)	8 (≈ 14.8 µM)				
CC1OC(OC2C(N)CC(N)C(OC3OC(CN)C(O)C(O)C3N)C2O)C(O)C(O)C1O (stereo in doubt; 23)			inactive	inactive		
CC1CC(O)C(O)C(OC2C(N)CC(N)C(OC3OC(CN)C(O)C(O)C3N)C2O)O1 (centres undefined)			inactive	inactive		
CC1OC(OC2C(N)CC(N)C(OC3OC(CN)C(O)C(O)C3N)C2O)C(O)C(N)C1OCC(O)CN (centres undefined)	2 (≈ 3.7 µM)	4 (≈ 7.4 µM)				
NCC1OC(OC2C(N)CC(N)C(OC3OCC(O)C(O)C3O)C2O)C(N)C(O)C1O (centres undefined)	64 (≈ 141 µM)	32 (≈ 70.4 µM)				
CC1OC(OC2C(N)CC(N)C(OC3OC(CN)C(O)C(O)C3N)C2O)C(O)C(O)C1O (stereo in doubt) [listing 2 of 2 here]			inactive	inactive		
CC1OC(OC2C(N)CC(N)C(OC3OC(CN)C(O)C(O)C3N)C2O)C(O)C(O)C1N (centres undefined)	2 (≈ 4.28 µM)	12 (≈ 25.7 µM)				
CC1OC(OC2C(N)CC(N)C(OC3OC(CN)C(O)C(O)C3N)C2O)C(O)C(N)C1O (centres undefined)	2 (≈ 4.28 µM)	2 (≈ 4.28 µM)				
CC1OC(OC2C(N)CC(N)C(OC3OC(CN)C(O)C(O)C3N)C2O)C(O)C(O)C1OC[C@H](O)CN (some centres undefined)	4 (≈ 7.39 µM)	4 (≈ 7.39 µM)				
CC1OC(OC2C(N)CC(N)C(OC3OC(CN)C(O)C(O)C3N)C2O)C(O)C(O)C1OC[C@@H](O)CN (some centres undefined)	4 (≈ 7.39 µM)	4 (≈ 7.39 µM)				
NC[C@H]1O[C@H](O[C@H]2[C@H](O)[C@@H](O[C@H]3O[C@H](CO)[C@@H](O)[C@H](N)[C@H]3O)[C@H](N)C[C@@H]2N)[C@H](N)[C@@H](O)[C@@H]1O [BEKANAMYCIN]	2 (≈ 4.14 µM)	2 (≈ 4.14 µM)			1 (≈ 2.07 µM)	4 (≈ 8.27 µM)
CC1OC(OC2C(N)CC(N)C(OC3OC(CN)C(O)C(O)C3N)C2O)C(O)C(O)C1OCC(CN)OC[C@H](O)CN (some centres undefined)	4 (≈ 6.51 µM)	8 (≈ 13 µM)				
